For this assay, the target named is T1, recombinant human liver GK (FLAG fusion protein) (Homo sapiens, UniProt P35557).
T1 construct: made in house; host or cells: E. coli
T1 sequence (P35557 1-466 isoform P35557-2): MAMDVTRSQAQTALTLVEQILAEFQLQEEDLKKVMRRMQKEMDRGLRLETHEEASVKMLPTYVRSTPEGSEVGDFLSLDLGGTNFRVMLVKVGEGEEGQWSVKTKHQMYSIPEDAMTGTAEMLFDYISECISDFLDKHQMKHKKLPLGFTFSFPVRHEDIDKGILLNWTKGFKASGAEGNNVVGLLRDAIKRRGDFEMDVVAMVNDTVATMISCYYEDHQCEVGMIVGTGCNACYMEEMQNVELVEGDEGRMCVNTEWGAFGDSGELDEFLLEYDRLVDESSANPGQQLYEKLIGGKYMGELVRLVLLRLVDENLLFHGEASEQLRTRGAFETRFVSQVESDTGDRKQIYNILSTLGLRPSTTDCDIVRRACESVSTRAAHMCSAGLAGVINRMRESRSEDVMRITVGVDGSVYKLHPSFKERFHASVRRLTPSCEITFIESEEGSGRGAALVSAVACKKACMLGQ
Briefly: Glucokinase (GK) activation assay, G6PDH-coupled Thio-NADH absorbance at 405 nm. The format is biochemical. As to conditions: final glucose concentration 2.5 mM, 30° C.; for EC50: GK activation; for Emax: OD level of DMSO control set as 100%. From the text: The excellent glucokinase-activating effect of the compounds of formula (I) may be determined by a method described in references (for example, Diabetes, Vol. 45, pp. 1671-1677, 1996), or in accordance with it.
The glucokinase activity may be determined not by directly measuring glucose-6-phosphate but by measuring the level of Thio-NADH, which is produced when a reporter enzyme, glucose-6-phosphate dehydrogenase produces phosphogluconolactone from glucose-6-phosphate, and based on the level, the level of glucokinase activation may be determined.
In this assay, used was a recombinant human liver GK, which was expressed by E. coli as a FLAG fusion protein therein and was purified by ANTIFLAG M2 AFFINITY GEL (Sigma).
Using a flat-bottomed 96-well plate, the assay was carried out at 30° C. 69 μl of an assay buffer (25 mM Hepes Buffer/pH=7.2, 2 mM MgCl2, 1 mM ATP, 0.5 mM TNAD, 1 mM dithiothreitol) was put into the plate, and 1 μl of a DMSO solution of the compound or DMSO alone as a control was added thereto. Next, 20 μl of an enzyme mixture (FLAG-GK, 20 U/ml G6PDH) cooled in ice was added to it, and 10 μl of a substrate, 25 mM glucose was added to it, and the reaction was initiated (final glucose concentration=2.5 mM).
After the start of the reaction, the increase in the absorbance at 405 nm was measured for 12 minutes at intervals of 30 seconds, and the increase for the first 5 minutes was used for evaluating the compound tested. FLAG-GK was added so that the absorbance increase after 5 minutes in the presence of 1% DMSO could be from 0.04 to 0.06.
The OD level of the DMSO control was set as 100%; and the OD level of the test compound at different concentrations was determined. From the OD level at each concentration, Emax (%) and EC50 (μM) were computed and used as the index of the GK-activating potency of the compound.

With `CCS(=O)(=O)c1ccc(Oc2cc3[nH]c(-c4ccccn4)nc3cc2C2OC(=O)N(C)C2=O)cc1` (centres unmarked) [Example 31, 5-(6-(4-(ethylsulfonyl)phenoxy)-2-pyridin-2-yl-1H-benzimidazol-5-yl)-3-methyl-1,3-oxazolidine-2,4-dione], the EC50 (as a rule, the concentration that produces a half-maximal response) came out at 1580 nM.
As for `CCS(=O)(=O)c1ccc(Oc2cc3[nH]c(-c4ccccn4)nc3cc2C2OCCO2)cc1` [Example 1, 5-(1,3-dioxolan-2-yl)-6-(4-(ethylsulfonyl)phenoxy)-2-pyridin-2-yl-1H-benzimidazole], the EC50 was 1180 nM and the Emax (usually the greatest response seen or fitted, relative to the assay's reference) was 923%.
With `CCS(=O)(=O)c1ccc(Oc2cc3[nH]c(-c4ccccn4)nc3cc2C2CCOC2=O)cc1` (centres unmarked) [Example 36, 3-(6-(4-(ethylsulfonyl)phenoxy)-2-pyridin-2-yl-1H-benzimidazol-5-yl)dihydrofuran-2(3H)-one], the EC50 is 880 nM and the Emax came to 978%.
In the case of `CCS(=O)(=O)c1ccc(Oc2cc3[nH]c(-c4cnccn4)nc3cc2C2CCC(=O)O2)cc1` (centres unmarked) [Example 23, 5-(6-(4-(ethylsulfonyl)phenoxy)-2-pyrazin-2-yl-1H-benzimidazol-5-yl)dihydrofuran-2(3H)-one], the EC50 is 1420 nM.
As for `CCS(=O)(=O)c1ccc(Oc2cc3[nH]c(-c4ccccn4)nc3cc2C2CCCS2)cc1` (centres unmarked) [Example 29-1, 5-(tetrahydro-2-thienyl)-6-(4-(ethylsulfonyl)phenoxy)-2-pyridin-2-yl-1H-benzimidazole], the EC50 is 600 nM.
As to `Cc1nc(-c2ccc(Oc3cc4[nH]c(-c5ccccn5)nc4cc3C3CCCO3)cn2)no1` (centres unmarked) [Example 17, 5-(tetrahydrofuran-2-yl)-6-(6-(5-methyl-(1,2,4)oxadiazol-3-yl)-pyridin-3-yloxy)-2-pyridin-2-yl-1H-benzimidazole], the EC50 came out at 1400 nM.

(Values after patent publication US7994331B2, “Heterocycle-substituted benzimidazole derivative” (MSD K.K., priority 2005, dated 2011).)
